Experimental data as given in patent publication EP1369114A1, “Use of tryptophan metabolites as pharmaceutical agents” (Terness, Peter, Priv. Doz. Dr., priority 2002, dated 2003).

Columns and labels:
[1] = tested on: T cells stimulated by allogeneic DCs; assay: Allogeneic T-cell response: lymphocyte proliferation induced by allogeneic dendritic cells, 3[H]-thymidin incorporation; type: cell-based, human; conditions: 6 days
From the text: DCs were generated from CD14-positive blood monocytes as previously described ("Schuler G. and N. Romani", 1997, Adv. Exp. Med. Biol. 417:7-13). Briefly, peripheral blood mononuclear cells of an HLA-typed healthy donor were separated by density gradient centrifugation and CD14-positive monocytes were isolated by adherence to culture dishes. Non-adherent cells were discarded. After culture of monocytes in the presence of human rGM-CSF (666 Units/ml) and rIL-4 (1000 Units/ml) for 7 days, rTNF-α (10 ng/ml) was added for an additional 2 days to induce maturation of DC. Characterization of DC phenotype was performed by flow cytometry using the following mouse monoclonal antibodies: anti-CD 14-FITC, anti-HLA-DR-FITC, anti-CD 1a-PE, anti-CD86-PE, and anti-CD83-PE (BD Biosciences Heidelberg, Germany). DCs were kept in liquid nitrogen until use.
• (a) Allogeneic T-cell response. DCs were infected with recombinant IDO-adeno-GFP (DC-IDO-GFP), IDO-adeno (DC-IDO) or with control adenoviruses (DC-adeno) at a MOI (multiplicity of infection) up to 500 for 2 days. […] After 5 days, ^3[H]-thymidin was added for 12hrs and the number of counts (counts per minute = cpm) determined in a (3-counter (Inotech Biosystems, Lansing, MI). In order to verify whether IDO expression or adenovirus infection harm the DCs, 10^5 cells were infected with IDO-adeno-GFP, IDO-adenovirus, or adenovirus only at a stepwise decreasing MOI (500, 250, 125, ........ 3.9) and cell viability was measured in FACS following double staining with 7-AAD and anti-CD83 antibody-PE. The percentage of dead cells never exceeded 30% for any MOI following IDO-adeno-GFP- or IDO-adeno-infection and 40% following adenovirus(control)-infection. […] After 2 days, cell proliferation was assessed by measuring ^3[H]-thymidin incorporation (cpm) as described. • (c) Tryptophan metabolite titration curves. […] After 2 days, ^3[H] thymidin was added and the number of counts recorded. […] After another 2 days, ^3[H] thymidin was added and cpm determined. […]

T cells = assay: Detection of cell death: 7-AAD staining of anti-CD3 stimulated lymphocytes, FACScan; type: cell-based, human; conditions: anti-CD3, 3 days; 1501 µM kynurenine, 349µM 3-hydroxykynurenine, 510µM 3-hydroxyanthranilic acid, mixture 64 µM of each compound
Experimental: Lymphocytes were stimulated in culture with anti-CD3 monoclonal antibody (s. above) in the presence or absence (control) of kynurenine (1501µM), 3-hydroxyanthranilic acid (510µM), 3-hydroxykynurenine (348µM), or metabolite mixture (64µM kynurenine + 64µM 3-hydroxykynurenine + 64µM anthranilic acid + 64µM 3-hydroxyanthranilic acid + […] quinolinic acid). After 3 days the cells were washed and resuspended in PBS (10^6/ml). Thereafter, the cells (100µ1 suspension) were labeled with anti-CD3-FITC antibody (3 µl), stained with 7-AAD (5µl) for 15 min, and the percentage of 7-AAD-positive (dead) T cells was determined in a FACScan. In an other experiment T cells, B cells, NK-cells, or DCs were separated from PBMCs by magnetic beads or generated as described, and cultured (5x10^5 cells/ml) with a mixture of kynurenine metabolites (kynurenine + 3-hydroxykynurenine + anthranilic acid + 3-hydroxyanthranilic acid + quinolinic acid)(8, 16, or 32µM respectively for each compound). In one setting T cells were activated with anti-CD3 antibody. Cell death was measured daily for 5 days by 7-AAD staining and expressed in percentage of dead cells.

SMILES: Nc1ccccc1C(=O)CC(N)C(=O)O (stereo not drawn) [kynurenine]
- inhibition of proliferation of T cells stimulated by allogeneic DCs (in words) [1]: completely inhibit the proliferation of T cells
- IC50 ([1]; Homo sapiens, T-cell, 144 h, 3[H]-thymidin incorporation, read-out: 50% inhibition (I50) of proliferation of T cells stimulated by allogeneic DCs): 157 µM
- dead (7-AAD-positive) T cells (in words) (T cells): virtually all cells died
